Source: patent US20100160304A1, “AROMATIC SULFONE COMPOUND AS ALDOSTERONE RECEPTOR MODULATOR” (Dainippon Sumitomo Pharma Co., Ltd, priority 2005, published 2010)

Target: T1, aldosterone receptor MR (Rattus norvegicus, UniProt P22199)
T1 construct: the resultant supernatant was being a soluble fraction of the kidney; from tissue; host or cells: kidney of adrenalectomized rat, 105,000 G supernatant (soluble fraction)
T1 sequence (P22199 1-981): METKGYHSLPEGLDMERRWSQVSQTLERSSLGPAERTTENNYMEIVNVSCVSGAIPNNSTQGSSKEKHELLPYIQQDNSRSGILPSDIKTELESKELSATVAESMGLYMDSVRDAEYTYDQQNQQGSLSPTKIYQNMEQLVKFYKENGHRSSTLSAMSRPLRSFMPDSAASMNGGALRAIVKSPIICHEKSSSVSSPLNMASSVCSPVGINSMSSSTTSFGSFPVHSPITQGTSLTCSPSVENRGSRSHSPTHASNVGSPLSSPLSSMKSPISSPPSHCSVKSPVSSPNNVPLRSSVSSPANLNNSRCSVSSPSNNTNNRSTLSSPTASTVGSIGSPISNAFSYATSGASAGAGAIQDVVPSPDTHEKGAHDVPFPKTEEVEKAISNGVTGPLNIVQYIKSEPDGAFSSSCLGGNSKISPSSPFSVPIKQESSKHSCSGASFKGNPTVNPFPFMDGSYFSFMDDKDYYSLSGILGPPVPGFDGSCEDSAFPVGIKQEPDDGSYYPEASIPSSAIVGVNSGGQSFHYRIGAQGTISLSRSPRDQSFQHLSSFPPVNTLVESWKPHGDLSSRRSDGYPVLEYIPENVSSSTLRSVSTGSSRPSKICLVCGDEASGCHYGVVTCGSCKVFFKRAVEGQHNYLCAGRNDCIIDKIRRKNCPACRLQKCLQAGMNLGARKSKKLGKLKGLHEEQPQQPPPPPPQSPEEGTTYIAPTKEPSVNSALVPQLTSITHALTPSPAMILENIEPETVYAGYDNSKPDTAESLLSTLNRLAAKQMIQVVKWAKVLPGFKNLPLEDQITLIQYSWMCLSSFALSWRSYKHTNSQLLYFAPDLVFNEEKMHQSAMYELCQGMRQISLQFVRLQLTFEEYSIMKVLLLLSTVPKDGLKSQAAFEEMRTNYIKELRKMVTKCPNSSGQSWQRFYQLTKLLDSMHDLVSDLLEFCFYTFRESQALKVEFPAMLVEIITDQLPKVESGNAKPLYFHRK
Assay: Aldosterone receptor binding assay ([3H]aldosterone, soluble fraction of rat kidney)
Conditions: [3H]aldosterone 2 nM, 2 μM RU-486, 4° C. about 18 hours
Description: Flank incision (both sides) was subjected to a rat to adrenalectomize. After suturing the rat's incised parts, the rat was again returned to a breeding cage and bred for a duration of 3 to 5 days to collect a kidney from the rat; the collected kidney was homogenized with 0.1 M Tris-HCl, 0.25M sucrose, 0.1M Na2MoO4, 2 mM DTT buffer solution (pH 7.4), the resultant solution was subjected to centrifugal separation at 105,000 G for 30 minutes, and the resultant supernatant was being a soluble fraction of the kidney.
Thereafter, the reactant solution was added with 50 μL of 5% dextran coated charcoal and mixed, and then centrifugated at 3,000 G for 5 minutes. Subsequently, 100 μL of the supernatant was collected and mixed with 3.5 mL of liquid scintillator ACS-II (Amersham) to measure a radioactivity with a liquid scintillation counter (manufactured by Packard, Tri Carb 2700TR). A non-specific binding was determined by adding 2 μM of aldosterone to the reactant solution.
Binding inhibiting rate (%)=10−[(B−N)/(B0−N)]×100
B: Binding amount of the marker ligand in the co-presence of the tested substance and marker ligand,
B0: Binding amount of the marker ligand in the absence of the tested substance, and
N: Binding amount of the marker ligand in the presence of excess aldosterone (2 μM).

Compound | IC50 [nM]
Cc1ccc(S(=O)(=O)Oc2ccc3c(c2)C(C)(C)OC(=S)N3)cc1 [Example 2, 4,4-Dimethyl-2-thioxo-1,4-dihydro-2H-3,1-benzoxazin-6-yl 4-methylbenzenesulfonate] | 320
CC1(C)OC(=S)Nc2ccc(OS(=O)(=O)c3cccs3)cc21 [Example 12, 4,4-Dimethyl-2-thioxo-1,4-dihydro-2H-3,1-benzoxazin-6-yl thiophene-2-sulfonate] | 83
CC1(C)OC(=S)Nc2ccc(OS(=O)(=O)c3ccc4ccccc4c3)cc21 [Example 14, 4,4-Dimethyl-2-thioxo-1,4-dihydro-2H-3,1-benzoxazin-6-yl naphthalene-2-sulfonate] | 470
Cc1ccc(S(=O)(=O)Cc2ccc3c(c2)C(C)(C)OC(=S)N3)cc1 [Example 16, 4,4-Dimethyl-6-{[(4-methylphenyl)sulfonyl]methyl}-1,4-dihydro-2H-3,1-benzoxazin-2-thione] | 7
CC1(C)OC(=S)Nc2ccc(CS(=O)(=O)c3ccccc3)cc21 [Example 18, 4,4-Dimethyl-6-[(phenylsulfonyl)methyl]-1,4-dihydro-2H-3,1-benzoxazin-2-thione] | 39
Cc1ccc(S(=O)(=O)Nc2ccc3c(c2)C(C)(C)OC(=S)N3)cc1 [Example 22, N-(4,4-Dimethyl-2-thioxo-1,4-dihydro-2H-3,1-benzoxazin-6-yl)-4-methylbenzenesulfonamide] | 210
CC1(C)OC(=O)Nc2ccc(NS(=O)(=O)c3cccs3)cc21 [Example 23, N-(4,4-Dimethyl-2-oxo-1,4-dihydro-2H-3,1-benzoxazin-6-yl)thiophene-2-sulfonamide] | 2400
CC(=O)N(c1ccc2c(c1)C(C)(C)OC(=S)N2)S(=O)(=O)c1cccs1 [Example 26, N-(4,4-Dimethyl-2-thioxo-1,4-dihydro-2H-3,1-benzoxazin-6-yl)-N-(2-thienylsulfonyl)acetamide] | 15
CC1(C)OC(=S)Nc2ccc(NS(=O)(=O)c3ccsc3)cc21 [Example 28, N-(4,4-Dimethyl-2-thioxo-1,4-dihydro-2H-3,1-benzoxazin-6-yl)thiophene-3-sulfonamide] | 13
CC1(C)OC(=S)Nc2ccc(NS(=O)(=O)c3ccccc3F)cc21 [Example 29, N-(4,4-Dimethyl-2-thioxo-1,4-dihydro-2H-3,1-benzoxazin-6-yl)-2-fluorobenzenesulfonamide] | 1600
CC1(C)OC(=S)Nc2ccc(NS(=O)(=O)c3ccc(C(F)(F)F)cc3)cc21 [Example 30, N-(4,4-Dimethyl-2-thioxo-1,4-dihydro-2H-3,1-benzoxazin-6-yl)-4-(trifluoromethyl)benzenesulfonamide] | 160
Cc1ccc(S(=O)(=O)Cc2cnc3c(c2)C(C)(C)OC(=S)N3)cc1 [Example 36, 4,4-Dimethyl-6-{[(4-methylphenyl)sulfonyl]methyl}-1,4-dihydro-2H-pyrido[2,3-d][1,3]oxazin-2-thione] | 1300
CC1(C)OC(=S)Nc2ncc(CS(=O)(=O)c3cccs3)cc21 [Example 37, 4,4-Dimethyl-6-[(2-thienylsulfonyl)methyl]-1,4-dihydro-2H-pyrido[2,3-d][1,3]oxazin-2-thione] | 960
CC1(C)OC(=S)Nc2ncc(CS(=O)(=O)c3cccnc3)cc21 [Example 38, 4,4-Dimethyl-6-[(pyridine-3-ylsulfonyl)methyl]-1,4-dihydro-2H-pyrido[2,3-d][1,3]oxazin-2-thione] | 6600
CC1(C)OC(=S)Nc2ncc(NS(=O)(=O)c3cccs3)cc21 [Example 41, N-(4,4-Dimethyl-2-thioxo-1,4-dihydro-2H-pyrido[2,3-d][1,3]oxazin-6-yl)thiophene-2-sulfonamide] | 5500
O=S(=O)(Nc1ccc2c(c1)C(c1ccccc1)OC(=S)N2)c1cccs1 (stereo not shown) [Example 44, N-(4-Phenyl-2-thioxo-1,4-dihydro-2H-3,1-benzoxazin-6-yl)thiophene-2-sulfonamide] | 860
